Measured values reported in patent US7064120B2, “Tricyclic pyridyl carboxamides and derivatives thereof tocolytic oxytocin receptor antagonists” (Wyeth, priority 2001, dated 2006).

molecular target: T1, human vasopressin V2 receptor subtype (Homo sapiens, UniProt P30518); experiment: Vasopressin binding in CHO cell membranes expressing human vasopressin V2 subtype receptors ([3H]arginine vasopressin radioligand binding); settings: 100 nM
T1 construct: host or cells: CHO cells, stably transfected (pZeoSV vector)
T1 sequence (P30518 whole entry): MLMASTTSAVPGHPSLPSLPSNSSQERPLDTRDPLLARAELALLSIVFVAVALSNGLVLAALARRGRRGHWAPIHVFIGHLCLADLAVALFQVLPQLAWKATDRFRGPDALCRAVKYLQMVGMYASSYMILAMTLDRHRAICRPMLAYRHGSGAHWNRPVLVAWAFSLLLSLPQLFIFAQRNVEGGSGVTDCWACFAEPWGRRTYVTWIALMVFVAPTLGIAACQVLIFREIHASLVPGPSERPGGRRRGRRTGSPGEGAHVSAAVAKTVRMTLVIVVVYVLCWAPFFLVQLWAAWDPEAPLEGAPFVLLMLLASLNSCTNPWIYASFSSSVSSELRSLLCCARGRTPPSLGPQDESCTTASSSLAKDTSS
Procedure: Vasopressin Binding in Chinese Hamster Ovary Cell Membranes Expressing Human Vasopressin V2 Subtype Receptors
Chinese Hamster Ovary (CHO) cells stably transfected with the human V2 subtype receptors were obtained from M. Thibonnier, Case Western Reserve University School of Medicine, Cleveland, Ohio.
The trypsin is removed by aspiration and the cells dislodged by tapping. Cell Culture medium (e.g. 30 mL for 1:30 split) is immediately added and mixed well to inactivate trypsin. 1 mL of detached cells is added to new culture flasks containing fresh Cell Culture medium (e.g. into 25 mL per T-150 flask), and mixed gently. The cells are incubated at 37° C. in 5% CO2. The medium is changed at 3 to 4 day interval (or as appropriate). […] All steps are done under sterile conditions.
The cells are washed twice gently with Hank's Balanced Salt solution (e.g. use 10 mL per T-150 flask). […] The contents are transferred to centrifuge tubes (50 mL) kept in ice bath. All subsequent steps are done at 4° C. The tubes are centrifuged at 300×g for 15 min (1380 rpm on SORVAL, Model RT6000D, using the rotor for 50 mL tubes). The supernatant is discarded and the cells suspended in homogenizing buffer(10 mM Tris-HCl containing 0.25 M sucrose and 1 mM EDTA, pH 7.4) ensuring that the volume of the buffer is about ten times the volume of the cell pellet. The cells are pooled into a centrifuge tube (50 mL) and homogenized with Polytron at setting 6 for 10 sec. The homogenate is transferred into a Potter-Elvjehm homogenizer and homogenized with 3 strokes. The homogenate is centrifuged at 1500×g for 60 min at 4° C. (3100 rpm using SORVAL, model RT6000D, using the rotor for 50 mL tubes). The pellet is discarded. The supernatant is centrifuged at 100,000×g for 60 min. at 4° C. (Beckman L8-80M ultracentrifuge; spin at 37,500 rpm with rotor type 70 Ti for 50 mL tubes; 38,000 rpm with type 80Ti for 15 mL tubes; or 35,800 rpm with rotor type 45Ti). The supernantant is discarded and the pellet suspended in 3 to 4 mL of Tris buffer (50 mM TRIS-HCl, pH 7.4). The protein content is estimated by the Bradford or Lowry method. The volume of the membrane suspension is adjusted with the membrane buffer (50 mM Tris-HCl containing 0.1% BSA and 0.1 mM PMSF) to give 3.0 mg/mL (or as appropriate) of protein. The membranes are aliquoted and stored at −70° C.
In wells of a 96-well format microtiter plate, is added 90, 110 or 130 μL (to make up a final volume of 200 μL) of assay buffer containing 50 mM of Tris-HCl (pH 7.4), […], 1 mg % aprotinin, 1 mg % leupeptin, 2 mg % 1,10-phenanthroline, 10 mg % trypsin inhibitor, and 0.1 mM PMSF. The inhibitors are added on the day of the experiment. The components are mixed at room temperature, and then kept in ice bath following adjustment of the pH to 7.4. […] For vasopressin and other peptide ligands 20 μL of 50% DMSO is added and the assay buffer volume is adjusted accordingly. To each well is added 50 μL of frozen membrane suspension thawed immediately prior to use and diluted in assay buffer to the required concentration (equivalent to 25 to 50 μg of protein/well as needed). 20 μL of 8 nM [^3H]arginine vasopressin ligand in the assay buffer, prepared just before use is added and incubated at room temperature for 60 min. shaking the plate on a mechanical shaker for the first 15 min. The incubation is stopped by rapid filtration of the plate contents followed by wash with ice-cold buffer (50 mM Tris-HCl, pH 7.4) using a cell harvester (Tomtek and Printed filtermat-B filter paper). The filter paper is thoroughly dried (7–12 min. in a microwave oven) and impregnated with MeltiLex B/H melt-on scintillation wax sheets and the radioactivity counted in a betaplate scintillation counter.
Binding data is either reported as percent inhibition at a certain concentration or if an IC50 was calculated, as a nanomolar concentration.

SMILES	inhibition at 0.1 µM [%]	V2 % inhibition @ 100 nM [%]
COc1cc(C(=O)N2Cc3ccc(C(=O)NCc4cccnc4)n3Cc3ccccc32)ccc1-c1cccc2ccccc12 [Example 44, 10-[3-Methoxy-4-(naphthalen-1-yl)benzoyl]-N-(3-pyridinylmethyl)-10,11-dihydro-5H-pyrrolo[2,1-c][1,4]benzodiazepine-3-carboxamide]	31	
COc1ccccc1-c1ccc(C(=O)N2Cc3ccc(C(=O)NCc4cccnc4)n3Cc3ccccc32)cc1OC [Example 45, 10-[(2,2′-Dimethoxy-[1,1′-biphenyl]-4-yl)carbonyl]-N-(3-pyridinylmethyl)-10,11-dihydro-5H-pyrrolo[2,1-c][1,4]benzodiazepine-3-carboxamide]	19	
COc1cccc(-c2ccc(C(=O)N3Cc4ccc(C(=O)NCc5cccnc5)n4Cc4ccccc43)cc2OC)c1 [Example 46, 10-[(2,3′-Dimethoxy-[1,1′-biphenyl]-4-yl)carbonyl]-N-(3-pyridinylmethyl)-10,11-dihydro-5H-pyrrolo[2,1-c][1,4]benzodiazepine-3-carboxamide]	8	
O=C(NCc1cccnc1)c1ccc2n1Cc1ccccc1N(C(=O)c1ccc(-c3cccc4ccccc34)cc1Cl)C2 [Example 47, 10-[2-Chloro-4-(naphthalen-1-yl)benzoyl]-N-(3-pyridinylmethyl)-10,11-dihydro-5H-pyrrolo[2,1-c][1,4]benzodiazepine-3-carboxamide]	6	
Cc1cc(C(=O)N2Cc3ccc(C(=O)NCc4cccnc4)n3Cc3ccccc32)ccc1-c1ccccc1C(F)(F)F [Example 48, 10-{[2-Methyl-2′-trifluoromethyl-[1,1′-biphenyl]-4-yl]carbonyl}-N-(3-pyridinylmethyl)-10,11-dihydro-5H-pyrrolo[2,1-c][1,4]benzodiazepine-3-carboxamide]	9	
COc1ccccc1-c1ccc(C(=O)N2Cc3ccc(C(=O)NCCc4ccccn4)n3Cc3ccccc32)cc1C [Example 49, 10-[(2′-Methoxy-2-methyl-[1,1′-biphenyl]-4-yl)carbonyl]-N-[2-(2-pyridinyl)ethyl]-10,11-dihydro-5H-pyrrolo[2,1-c][1,4]benzodiazepine-3-carboxamide]	26	
Cc1ccccc1-c1ccc(C(=O)N2Cc3ccc(C(=O)NCCc4ccccn4)n3Cc3ccccc32)cc1C [Example 50, 10-[(2,2′-Dimethyl-[1,1′-biphenyl]-4-yl)carbonyl]-N-[2-(2-pyridinyl)ethyl]-10,11-dihydro-5H-pyrrolo[2,1-c][1,4]benzodiazepine-3-carboxamide]	17	
COc1cccc(-c2ccc(C(=O)N3Cc4ccc(C(=O)NCCc5ccccn5)n4Cc4ccccc43)cc2C)c1 [Example 51, 10-[(3′-Methoxy-2-methyl-[1,1′-biphenyl]-4-yl)carbonyl]-N-[2-(2-pyridinyl)ethyl]-10,11-dihydro-5H-pyrrolo[2,1-c][1,4]benzodiazepine-3-carboxamide]	16	
COc1ccccc1-c1ccc(C(=O)N2Cc3ccc(C(=O)NCCc4ccccn4)n3Cc3ccccc32)cc1 [Example 52, 10-[(2′-Methoxy-[1,1′-biphenyl]-4-yl)carbonyl]-N-[2-(2-pyridinyl)ethyl]-10,11-dihydro-5H-pyrrolo[2,1-c][1,4]benzodiazepine-3-carboxamide]	8	
Cc1ccccc1-c1ccc(C(=O)N2Cc3ccc(C(=O)NCCc4ccccn4)n3Cc3ccccc32)cc1 [Example 53, 10-[(2′-Methyl-[1,1′-biphenyl]-4-yl)carbonyl]-N-[2-(2-pyridinyl)ethyl]-10,11-dihydro-5H-pyrrolo[2,1-c][1,4]benzodiazepine-3-carboxamide]	13	
COc1cc(C(=O)N2Cc3ccc(C(=O)NCCc4ccccn4)n3Cc3ccccc32)ccc1-c1ccccc1C [Example 54, 10-[(2-Methoxy-2′-methyl-[1,1′-biphenyl]-4-yl)carbonyl]-N-[2-(2-pyridinyl)ethyl]-10,11-dihydro-5H-pyrrolo[2,1-c][1,4]benzodiazepine-3-carboxamide]	18	
COc1cc(-c2ccccc2C)c(Cl)cc1C(=O)N1Cc2ccc(C(=O)NCCc3ccccn3)n2Cc2ccccc21 [Example 55, 10-[(6-Chloro-3-methoxy-2′-methyl-[1,1′-biphenyl]-4-yl)carbonyl]-N-[2-(2-pyridinyl)ethyl]-10,11-dihydro-5H-pyrrolo[2,1-c][1,4]benzodiazepine-3-carboxamide]	5	
COc1cccc(-c2cc(OC)c(C(=O)N3Cc4ccc(C(=O)NCCc5ccccn5)n4Cc4ccccc43)cc2Cl)c1 [Example 56, 10-[(6-Chloro-3,3′-dimethoxy-[1,1′-biphenyl]-4-yl)carbonyl]-N-[2-(2-pyridinyl)ethyl]-10,11-dihydro-5H-pyrrolo[2,1-c][1,4]benzodiazepine-3-carboxamide]	11	
COc1cc(C(=O)N2Cc3ccc(C(=O)NCCc4ccccn4)n3Cc3ccccc32)ccc1-c1cccc2ccccc12 [Example 57, 10-[3-Methoxy-4-(naphthalen-1-yl)benzoyl]-N-[2-(2-pyridinyl)ethyl]-10,11-dihydro-5H-pyrrolo[2,1-c][1,4]benzodiazepine-3-carboxamide]	33	
COc1ccccc1-c1ccc(C(=O)N2Cc3ccc(C(=O)NCCc4ccccn4)n3Cc3ccccc32)cc1OC [Example 58, 10-[(2,2′-Dimethoxy-[1,1′-biphenyl]-4-yl)carbonyl]-N-[2-(2-pyridinyl)ethyl]-10,11-dihydro-5H-pyrrolo[2,1-c][1,4]benzodiazepine-3-carboxamide]	22	
COc1cccc(-c2ccc(C(=O)N3Cc4ccc(C(=O)NCCc5ccccn5)n4Cc4ccccc43)cc2OC)c1 [Example 59, 10-[(2,3′-Dimethoxy-[1,1′-biphenyl]-4-yl)carbonyl]-N-[2-(2-pyridinyl)ethyl]-10,11-dihydro-5H-pyrrolo[2,1-c][1,4]benzodiazepine-3-carboxamide]	4	
O=C(NCCc1ccccn1)c1ccc2n1Cc1ccccc1N(C(=O)c1ccc(-c3cccc4ccccc34)cc1Cl)C2 [Example 60, 10-[2-Chloro-4-(naphthalen-1-yl)benzoyl]-N-[2-(2-pyridinyl)ethyl]-10,11-dihydro-5H-pyrrolo[2,1-c][1,4]benzodiazepine-3-carboxamide]	15	
Cc1cc(C(=O)N2Cc3ccc(C(=O)NCCc4ccccn4)n3Cc3ccccc32)ccc1-c1ccccc1C(F)(F)F [Example 61, 10-{[2-Methyl-2′-trifluoromethyl=[1,1′-biphenyl]-4-yl]carbonyl}-N-[2-(2-pyridinyl)ethyl]-10,11-dihydro-5H-pyrrolo[2,1-c][1,4]benzodiazepine-3-carboxamide]		14
COc1ccccc1-c1ccc(C(=O)N2Cc3ccc(C(=O)N(C)CCc4ccccn4)n3Cc3ccccc32)cc1OC [Example 64, 10-[(2,2′-Dimethoxy-[1,1′-biphenyl]-4-yl)carbonyl]-N-methyl-N-[2-(2-pyridinyl)ethyl]-10,11-dihydro-5H-pyrrolo[2,1-c][1,4]benzodiazepine-3-carboxamide]	13	
COc1cc(C(=O)N2Cc3ccc(C(=O)N4CCN(c5ccccn5)CC4)n3Cc3ccccc32)ccc1-c1cccc2ccccc12 [Example 83]		22
COc1cccc(-c2ccc(C(=O)N3Cc4ccc(C(=O)NCc5ccncc5)n4Cc4ccccc43)cc2OC)c1 [Example 98]		10
